Reference: US9920025B2, “Antibiotic” (Koninklijke Nederlandse Akademie Van Wetenschappen, priority 2014, dated 2018)

Tests used:
[1] = test system: Listeria monocytogenes; assay: Growth kinetics (time-kill curves); format: cell-based; conditions: 50, 100 and 200 μg/ml, 37° C., 24 hrs
Description: (§1) Also preferred is a growth kinetic assay the effect of the compound of interest is assessed in time on growth of bacterial isolates on blood-agar plates, as known by the person skilled in the art. In brief, liquid cultures are inoculated in Mueller-Hinton Broth and incubated at 37° C. o/n. The o/n cultures were used to prepare a 0.05-0.1 McFarland suspension in Mueller Hinton Broth, which are incubated at 37° C. until 0.5 McFarland ([…]). These suspensions are used to inoculate 5 ml pre-warmed Mueller-Hinton Broth with approximately 1.5×10^5 CFU/ml with the appropriate antibiotic compound of interest. Directly after addition of the bacterial suspension a 0.25 ml sample is taken. Further 0.25 ml samples are taken after 1, 3, 6 and 24 hrs, which are added to 2.25 ml physiological salt solution. This suspension is used to prepare plates for CFU determination. The lower limit of detection is 40 CFU/ml. Bacterial suspension without antibiotics is preferably checked for normal growth after 24 hrs. A compound is understood herein as having antibacterial activity if at least 3 log10 reduction of CFU in the growth kinetics assay as passed after 1, 3, 6 or preferably 24 hours.
(§2) After elucidating the structure, we studied the growth kinetics of several Gram+bacteria in the presence of 50, 100 and 200 μg/ml of the compound of formula (I), in order to determine whether the compound was bacteriostatic or bactericidal. The bacteria were cultured at 37° C. for 24 hrs (with the exception of Streptococcus Pneumoniae which was cultured until 6 hrs) in the presence of the compound and samples were taken for colony counting at 0, 1, 3, 6 and 24 hrs.
(§3) More specifically, bacterial isolates as indicated below were grown on blood-agar plates. Liquid cultures were inoculated in Mueller-Hinton Broth and incubated at 37° C. o/n. The o/n cultures were used to prepare a 0.05-0.1 McFarland suspension in Mueller Hinton Broth, which was incubated at 37° C. until 0.5 McFarland ([…]). These suspensions were used to inoculate 5 ml pre-warmed Mueller-Hinton Broth with approximately 1.5×10^5 CFU/ml with the appropriate antibiotic and antibiotic concentration. Directly after addition of the bacterial suspension a 0.25 ml sample was taken. Further 0.25 ml samples were taken after 1, 3, 6 and 24 hrs. Samples were added to 2.25 ml physiological salt solution. This suspension was used to prepare plates for CFU determination. The lower limit of detection was 40 CFU/ml. Bacterial suspension without antibiotics was checked for normal growth after 24 hrs. Efficient bactericidal activity is defined as at least 3 log10 reduction of CFU.
(§4) The bacteria tested were two strains of Enterococcus faecium (FIGS. 2A and 2B), MRSA USA300 (FIG. 2C), MSSA (FIG. 2D), Staphylococcus epidermidis (FIG. 2E), Listeria monocytogenes (FIG. 2F), Streptococcus group A (FIG. 2G), Streptococcus group B (FIG. 2H) and Streptococcus pneumoniae (FIG. 2I).

[2] = test system: Streptococcus Group B; assay: Growth kinetics (time-kill curves); format: cell-based; conditions: 50, 100 and 200 μg/ml, 37° C., 24 hrs, bactericidal = at least 3 log10 reduction of CFU
Description: as §1, §2, §3, §4

[3] = test system: Streptococcus Group A; assay: Growth kinetics (time-kill curves); format: cell-based; conditions: 50, 100 and 200 μg/ml, 37° C., 24 hrs
Description: as §1, §2, §3, §4

[4] = test system: Streptococcus pneumoniae; assay: Growth kinetics (time-kill curves); format: cell-based; conditions: 50, 100 and 200 μg/ml, 37° C., cultured until 6 hrs
Description: as §1, §2, §3, §4

[5] = test system: Staphylococcus epidermidis; assay: Growth kinetics (time-kill curves); format: cell-based; conditions: 50, 100 and 200 μg/ml, 37° C., 24 hrs
Description: as §1, §2, §3, §4

[6] = test system: E. faecium (16D030); assay: Growth kinetics (time-kill curves); format: cell-based, Enterococcus faecium; conditions: 50, 100 and 200 μg/ml, 37° C., 24 hrs
Description: as §1, with “hours. […]” for “hours.”

[7] = test system: E. faecium (15A623); assay: Growth kinetics (time-kill curves); format: cell-based, Enterococcus faecium; conditions: 50, 100 and 200 μg/ml, 37° C., 24 hrs
Description: as §1, with “hours. […]” for “hours.”

[8] = test system: Klebsiella pneumonia (CP14); assay: Antibiotic activity of purified fraction (broth growth inhibition, serial dilution); format: cell-based; conditions: ESBL TEM-18, Gram−, no effect at highest concentration
Description: (§5) Preferably the compound of the invention has antimicrobial or antibiotic activity, more preferably antibacterial activity. Antimicrobial or antibacterial activity can be assessed by a suitable assay known by the person skilled in the art, preferably by a growth inhibition assay as exemplified herein. Preferably growth inhibition is assessed by culturing bacteria are cultured in the presence or absence of the antibacterial compound o/n at 37° C. in Luria Broth (LB). The read-out of the assay is by eye, if the bacteria have visibly grown, the sample is scored as non-inhibitory. If the broth is completely clear, the sample is scored as inhibitory.
(§6) Bacteria are cultured o/n at 37° C. in Luria Broth (LB). This culture is diluted 100× in fresh LB. This fresh culture is then used to test the filtrate and extract. The filtrate was tested in serial dilutions starting at 2× and further diluted with a factor 2 until 256×. The extract was tested starting at 10× dilution and further diluted with a factor 2 until 1280×. The bacteria with filtrate or extract were incubated o/n at 37° C. The read-out of the assay is by eye, if the bacteria have visibly grown, the sample is scored as non-inhibitory. If the broth is completely clear, the sample is scored as inhibitory.
(§7) The 95 fractions collected were pooled per 6 and the pooled fractions were dried in a speed-vac o/n. The fraction residues were dissolved in 1 ml 5% DMSO and tested on E. faecium (15A623) in serial dilutions starting at 2×. […] 1 ml of each fraction was dried in a speed-vac o/n and each fraction residue was dissolved in 1 ml 5% DMSO to be tested on E. faecium. […] The fraction was then tested on 19 additional strains of bacteria (Table 3).

[9] = test system: Pseudomonas aeruginosa (04A191), NCCB 100515; assay: as above; format: cell-based; conditions: Gram−, no effect at highest concentration
Description: as §5, §6, §7

[10] = test system: Staphylococcus epidermidis (08A1071); assay: as above; format: cell-based; conditions: Gram+
Description: as §5, §6, §7

[11] = test system: Klebsiella pneumonia (JS264); assay: as above; format: cell-based; conditions: ESBL CTX-M-15, Gram−, no effect at highest concentration
Description: as §5, §6, §7

[12] = test system: Listeria monocytogenes (41-4a); assay: as above; format: cell-based; conditions: Gram+
Description: as §5, §6, §7

[13] = test system: Streptococcus group A (23M092); assay: as above; format: cell-based; conditions: Gram+
Description: as §5, §6, §7

[14] = test system: Methicillin-resistant Staphylococcus aureus (MRSA) ST8: USA300 (S1474) FPR3757, NARSA collection NRS482; assay: as above; format: cell-based; conditions: Gram+
Description: as §5, §6, §7

[15] = test system: Stenotrophomonas maltophilia (20A226), NCCB 100516; assay: as above; format: cell-based; conditions: Gram−, no effect at highest concentration
Description: as §5, §6, §7

[16] = test system: Enterococcus faecium(16D030); assay: as above; format: cell-based; conditions: Gram+
Description: as §5, §6, §7

[17] = test system: Streptococcus pneumoniae (14B186); assay: as above; format: cell-based; conditions: Gram+
Description: as §5, §6, §7

[18] = test system: Escherichia coli (CP131); assay: as above; format: cell-based; conditions: ESBL SHV-3, Gram−, no effect at highest concentration
Description: as §5, §6, §7

[19] = test system: Escherichia coli (JS203); assay: as above; format: cell-based; conditions: ESBL CTX-M-1, Gram−, no effect at highest concentration
Description: as §5, §6, §7

[20] = test system: Acinetobacter calcoaceticus (15A600), NCCB 100514; assay: as above; format: cell-based; conditions: Gram−, no effect at highest concentration
Description: as §5, §6, §7

[21] = test system: Escherichia coli (JS004); assay: as above; format: cell-based; conditions: ESBL TEM-3, Gram−, no effect at highest concentration
Description: as §5, §6, §7

[22] = test system: Enterococcus faecium(15A623); assay: as above; format: cell-based
Description: as §5, §6, §7

[23] = test system: Streptococcus group B (05A396); assay: as above; format: cell-based; conditions: Gram+
Description: as §5, §6, §7

[24] = test system: Methicillin-sensitive Staphylococcus aureus 476 (S0101), ATCC BAA-1721; assay: as above; format: cell-based; conditions: Gram+
Description: as §5, §6, §7

[25] = test system: Klebsiella pneumonia (JS006); assay: as above; format: cell-based; conditions: ESBL SHV-18, Gram−, no effect at highest concentration
Description: as §5, §6, §7

[26] = test system: Klebsiella pneumoniae (MR44); assay: as above; format: cell-based; conditions: Gram−, no effect at highest concentration
Description: as §5, §6, §7

[27] = test system: MRSA USA300; assay: Growth kinetics (time-kill curves); format: cell-based, Staphylococcus aureus; conditions: 50, 100 and 200 μg/ml, 37° C., 24 hrs
Description: as §1, with “hours. […]” for “hours.”

[28] = test system: MSSA; assay: Growth kinetics (time-kill curves); format: cell-based, Staphylococcus aureus; conditions: 50, 100 and 200 μg/ml, 37° C., 24 hrs
Description: as §1, with “hours. […]” for “hours.”

CC1CCC(=O)/C=C/C(=O)O1 (stereo not drawn) [compound of formula (I), (E)-8-methyl-7,8-dihydro-2H-oxocine-2,5(6H)-dione]
No effect at 1.5 g/l: Minimal concentration for antibacterial activity [8] | Minimal concentration for antibacterial activity [9] | Minimal concentration for antibacterial activity [11] | Minimal concentration for antibacterial activity [15] | Minimal concentration for antibacterial activity [18] | Minimal concentration for antibacterial activity [19] | Minimal concentration for antibacterial activity [20] | Minimal concentration for antibacterial activity [21] | Minimal concentration for antibacterial activity [25] | Minimal concentration for antibacterial activity [26]
inhibited bacterial growth: inhibition of bacterial growth by HPLC fractions ([22]; E. faecium (15A623), residue in 1 ml 5% DMSO, serial dilutions starting at 2×)
4.69 mg/L: Minimal concentration for antibacterial activity [24]
18.8 mg/L: Minimal concentration for antibacterial activity [10] | Minimal concentration for antibacterial activity [14]
37.5 mg/1: Minimal concentration for antibacterial activity ([22]; Enterococcus faecium(15A623), Gram+)
bacteriostatic: bacteriostatic or bactericidal (time-kill curves) [2] | bacteriostatic or bactericidal (time-kill curves) [6] | bacteriostatic or bactericidal (time-kill curves) [7]
75.0 mg/1: Minimal concentration for antibacterial activity [12] | Minimal concentration for antibacterial activity [13] | Minimal concentration for antibacterial activity [16] | Minimal concentration for antibacterial activity [17] | Minimal concentration for antibacterial activity [23]
bactericidal: bacteriostatic or bactericidal (time-kill curves) [1] | bacteriostatic or bactericidal (time-kill curves) [3] | bacteriostatic or bactericidal (time-kill curves) [4] | bacteriostatic or bactericidal (time-kill curves) [5] | bacteriostatic or bactericidal (time-kill curves) [27] | bacteriostatic or bactericidal (time-kill curves) [28]
active: activity against E. faecium (15A623) ([22]; compound of formula (I) and hydrogenated derivative at similar concentrations)
